From US20230114728A1 (Venatorx Pharmaceuticals, Inc., priority 2019, published 2023) come the findings set out here.

SMILES strings stand for the structures. In brackets after ≈: the same amount, converted by molar mass.

Experiment [1] deals with A. baumannii PBP1a (Acinetobacter baumannii, UniProt A0ABX6CK30). Briefly: Bocillin-FL fluorescence polarization competition binding assay, A. baumannii PBP1a. The settings on record: fluorescence polarization competition binding assay using Bocillin-FL; column 1; read-out: A. baumannii PBP1a Potency.
Experiment [2] can be described thus: Bocillin-FL fluorescence polarization competition binding assay, A. baumannii PBP3. As to conditions: fluorescence polarization competition binding assay using Bocillin-FL; column 3; read-out: 4. baumannii PBP1a Potency. In short, it runs like this:
(§1)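 Fluorescence polarization (ex 490/em 520 nm) competition of inhibitors against Bocillin-FL at 0.1 μM, read up to 60 min. Final PBP levels: E. coli PBP3 1.5 μM; A. baumannii PBP2 2.5 μM, PBP3 0.2 μM in Tris pH 8.0/NaCl/glycerol/Tween 20; N. gonorrhoeae PBP2 […] in Hepes pH 8.0/NaCl/glycerol. EC50 = concentration halving PBP-bound Bocillin-FL.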

Experiment [3] addresses T1, N. gonorrhoeae PBP2 (Neisseria gonorrhoeae, UniProt P08149).
T1 construct: made in house
Put plainly: Bocillin-FL fluorescence polarization competition binding assay, N. gonorrhoeae PBP2. The settings on record: fluorescence polarization competition binding assay using Bocillin-FL; read-out: N. gonorrhoeae PBP2 Potency. In short, it runs like this: as §1

Experiment [4] relates to P. aeruginosa CDC-0110. Put plainly: Broth microdilution MIC in iron-depleted CAMHB (IDM). As to conditions: Pseudomonas aeruginosa, CDC0110, read-out: Minimum Inhibitory Concentration, P. aeruginosa CDC-0110. The class given is cell-based. In short, it runs like this:
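CLSI broth microdilution in iron-depleted cation-adjusted Mueller Hinton broth (Chelex-treated, Ca, Mg, Zn restored, pH 7.3), inoculum 2-8×10^5 CFU/mL, 2-fold compound dilutions. Pseudomonas plates incubated 16-20 h at 37 °C; MIC read visually as lowest concentration without growth.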

Chain of A. baumannii PBP1a (A0ABX6CK30 entry or part of it): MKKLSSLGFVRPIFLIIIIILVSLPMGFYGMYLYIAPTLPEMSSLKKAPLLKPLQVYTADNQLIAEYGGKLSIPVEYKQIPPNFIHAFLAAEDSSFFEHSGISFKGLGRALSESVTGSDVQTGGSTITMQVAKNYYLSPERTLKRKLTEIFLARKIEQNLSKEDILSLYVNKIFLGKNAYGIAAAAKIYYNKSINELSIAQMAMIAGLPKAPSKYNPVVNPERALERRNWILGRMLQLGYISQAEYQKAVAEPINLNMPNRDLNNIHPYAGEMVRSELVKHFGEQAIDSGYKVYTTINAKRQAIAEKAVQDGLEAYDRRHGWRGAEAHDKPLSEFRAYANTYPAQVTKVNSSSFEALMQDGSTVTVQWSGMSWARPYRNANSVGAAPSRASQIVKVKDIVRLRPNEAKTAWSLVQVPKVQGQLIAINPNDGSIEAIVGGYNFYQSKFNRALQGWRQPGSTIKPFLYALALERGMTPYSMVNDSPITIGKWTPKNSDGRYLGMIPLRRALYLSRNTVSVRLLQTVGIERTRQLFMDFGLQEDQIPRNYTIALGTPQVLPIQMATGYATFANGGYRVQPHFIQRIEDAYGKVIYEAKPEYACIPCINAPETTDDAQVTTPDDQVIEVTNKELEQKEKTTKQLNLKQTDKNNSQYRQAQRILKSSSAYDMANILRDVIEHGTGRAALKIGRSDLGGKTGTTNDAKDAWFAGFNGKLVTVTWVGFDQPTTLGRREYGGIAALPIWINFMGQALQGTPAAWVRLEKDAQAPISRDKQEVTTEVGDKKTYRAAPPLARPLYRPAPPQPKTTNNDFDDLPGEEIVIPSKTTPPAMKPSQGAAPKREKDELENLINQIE
T1 sequence (P08149 whole entry): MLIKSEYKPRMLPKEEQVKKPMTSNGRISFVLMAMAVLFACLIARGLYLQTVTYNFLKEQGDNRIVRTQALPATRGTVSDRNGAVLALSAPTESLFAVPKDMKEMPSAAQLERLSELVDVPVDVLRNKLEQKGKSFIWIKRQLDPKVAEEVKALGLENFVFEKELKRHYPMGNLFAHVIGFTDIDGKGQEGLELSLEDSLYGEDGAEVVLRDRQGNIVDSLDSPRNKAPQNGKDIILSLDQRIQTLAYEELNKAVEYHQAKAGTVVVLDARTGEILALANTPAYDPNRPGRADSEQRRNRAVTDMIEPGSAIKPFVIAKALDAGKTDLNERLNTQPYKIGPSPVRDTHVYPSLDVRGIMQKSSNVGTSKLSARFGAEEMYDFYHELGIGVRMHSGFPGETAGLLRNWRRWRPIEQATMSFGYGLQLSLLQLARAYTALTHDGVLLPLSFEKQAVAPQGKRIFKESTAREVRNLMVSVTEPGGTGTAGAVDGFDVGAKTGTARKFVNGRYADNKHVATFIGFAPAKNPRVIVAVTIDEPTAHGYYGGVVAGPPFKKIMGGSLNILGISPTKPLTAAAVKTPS

On to `CCN1CCN(C(=O)N[C@@H](C(=O)N[C@H]2Cc3cccc(C(=O)O)c3OB2O)c2c(O)cc(O)cc2F)C(=O)C1=O` (single isomer, unassigned) [Example 182], for which the EC50 in experiment [1], in experiment [2] and in experiment [3] was > 100 µM throughout.

As to `NCCN1CCN(C(=O)N[C@@H](C(=O)N[C@H]2Cc3cccc(C(=O)O)c3OB2O)c2ccc(O)c(Cl)c2F)C(=O)C1=O` (single isomer, unassigned) [Example 186], in experiment [3], the EC50 is < 10 µM.

Consider `NCCN1CCN(C(=O)N[C@H](C(=O)N[C@H]2Cc3cccc(C(=O)O)c3OB2O)c2ccc(O)c(Cl)c2F)C(=O)C1=O` (single isomer, unassigned) [Example 187], for which the EC50 in experiment [3] fell in the range of 10 to 30 µM. For the compound `NCCN1CCN(C(=O)N[C@@H](C(=O)N[C@H]2Cc3cccc(C(=O)O)c3OB2O)c2c(O)cc(O)cc2F)C(=O)C1=O` (single isomer, unassigned) [Example 194], the EC50 in experiment [3] lay within 30 to 100 µM. Regarding `NCCCN1CCN(C(=O)N[C@@H](C(=O)N[C@H]2Cc3cccc(C(=O)O)c3OB2O)c2c(O)cc(O)cc2F)C(=O)C1=O` (single isomer, unassigned) [Example 195], in experiment [3], the EC50 was in the range of 10 to 30 µM. On the same count and under the same terms, to `NCCN1CCN(C(=O)N[C@@H](C(=O)N[C@H]2Cc3cccc(C(=O)O)c3OB2O)c2ccc(O)c([N+](=O)[O-])c2)C(=O)C1=O` (single isomer, unassigned) [Example 199] belongs 10 to 30 µM; to `NCCN1CCN(C(=O)N[C@H](C(=O)N[C@H]2Cc3cccc(C(=O)O)c3OB2O)c2ccc(O)c([N+](=O)[O-])c2)C(=O)C1=O` (single isomer, unassigned) [Example 200], > 100 µM. The same measure, in the same setting: to `CCN1CCN(C(=O)N[C@H](C(=O)N[C@H]2Cc3cccc(C(=O)O)c3OB2O)c2ccc(C(=O)O)c(F)c2Cl)C(=O)C1=O` (single isomer, unassigned) [Example 202] belongs > 100 µM; to `CCN1CCN(C(=O)N[C@@H](C(=O)N[C@H]2Cc3cccc(C(=O)O)c3OB2O)c2ccc(C(=O)O)c(F)c2Cl)C(=O)C1=O` (single isomer, unassigned) [Example 203], < 10 µM.

With `CCN1CCN(C(=O)N[C@@H](C(=O)N[C@H]2Cc3ccc(F)c(C(=O)O)c3OB2O)c2c(Cl)cc(O)c(O)c2F)C(=O)C1=O` (single isomer, unassigned) [Example 207], the EC50 in experiment [2] was in the range of 10 to 30 µM. The MIC in experiment [4] is 2 to 4 µg/mL (≈ 3.27 to 6.55 µM). In the case of `C[C@H]1CN(CCNC(=O)c2ccc(O)c(O)c2Cl)C(=O)C(=O)N1C(=O)NC(C(=O)N[C@H]1Cc2cccc(C(=O)O)c2OB1O)c1ncc(O)cc1F` (stereo partly drawn) [Example 2, (3R)-3-(2-((S)-4-(2-(2-chloro-3,4-dihydroxybenzamido)ethyl)-6-methyl-2,3-dioxopiperazine-1-carboxamido)-2-(3-fluoro-5-hydroxypyridin-2-yl)acetamido)-2-hydroxy-3,4-dihydro-2H-benzo[e][1,2]oxaborinine-8-carboxylic acid], the figures for the EC50 in experiment [1] and in experiment [2] were 10 to 30 µM and < 10 µM, respectively. Further, the MIC in experiment [4] is 2 to 4 µg/mL (≈ 2.69 to 5.38 µM). Take `O=C(NCCCN1CCN(C(=O)NC(C(=O)N[C@H]2Cc3ccc(F)c(C(=O)O)c3OB2O)c2ncc(O)cc2F)C(=O)C1=O)c1ccc(O)c(O)c1Cl` (stereo partly drawn) [Example 3, (3R)-3-(2-(4-(3-(2-chloro-3,4-dihydroxybenzamido)propyl)-2,3-dioxopiperazine-1-carboxamido)-2-(3-fluoro-5-hydroxypyridin-2-yl)acetamido)-7-fluoro-2-hydroxy-3,4-dihydro-2H-benzo[e][1,2]oxaborinine-8-carboxylic acid]: the values for the EC50 in experiment [1] and in experiment [2] were 30 to 100 µM and < 10 µM, respectively. Besides, the MIC in experiment [4] is 2 to 4 µg/mL (≈ 2.63 to 5.26 µM). As for `NCCCN1CCN(C(=O)NC(C(=O)N[C@H]2Cc3cccc(C(=O)O)c3OB2O)c2c(F)cc(O)cc2F)C(=O)C1=O` (stereo partly drawn) [Example 183, (3R)-3-(2-(4-(3-aminopropyl)-2,3-dioxopiperazine-1-carboxamido)-2-(2,6-difluoro-4-hydroxyphenyl)acetamido)-2-hydroxy-3,4-dihydro-2H-benzo[e][1,2]oxaborinine-8-carboxylic acid], the EC50 in experiment [3] is < 10 µM. Still for that read-out and setting: for `CCN1CCN(C(=O)NC(C(=O)N[C@H]2Cc3cccc(C(=O)O)c3OB2O)c2cc([N+](=O)[O-])c(O)cc2F)C(=O)C1=O` (stereo partly drawn) [Example 184, (3R)-3-(2-(4-ethyl-2,3-dioxopiperazine-1-carboxamido)-2-(2-fluoro-4-hydroxy-5-nitrophenyl)acetamido)-2-hydroxy-3,4-dihydro-2H-benzo[e][1,2]oxaborinine-8-carboxylic acid] the value was < 10 µM.

`CCN1CCN(C(=O)NC(C(=O)N[C@H]2Cc3cccc(C(=O)O)c3OB2O)c2ccc(O)c(Cl)c2F)C(=O)C1=O` (stereo partly drawn) [Example 185, (3R)-3-(2-(3-chloro-2-fluoro-4-hydroxyphenyl)-2-(4-ethyl-2,3-dioxopiperazine-1-carboxamido)acetamido)-2-hydroxy-3,4-dihydro-2H-benzo[e][1,2]oxaborinine-8-carboxylic acid]: in experiment [3], the EC50 was < 10 µM. `CCN1CCN(C(=O)NC(C(=O)N[C@H]2Cc3cccc(C(=O)O)c3OB2O)c2c(F)cc(NC(C)=O)cc2F)C(=O)C1=O` (stereo partly drawn) [Example 188, (3R)-3-(2-(4-acetamido-2,6-difluorophenyl)-2-(4-ethyl-2,3-dioxopiperazine-1-carboxamido)acetamido)-2-hydroxy-3,4-dihydro-2H-benzo[e][1,2]oxaborinine-8-carboxylic acid]: the EC50 in experiment [2] and in experiment [3] was < 10 µM in each case. Regarding `CCN1CCN(C(=O)NC(C(=O)N[C@H]2Cc3cccc(C(=O)O)c3OB2O)c2cc(C#N)c(OC)cc2F)C(=O)C1=O` (stereo partly drawn) [Example 192, (3R)-3-(2-(5-cyano-2-fluoro-4-methoxyphenyl)-2-(4-ethyl-2,3-dioxopiperazine-1-carboxamido)acetamido)-2-hydroxy-3,4-dihydro-2H-benzo[e][1,2]oxaborinine-8-carboxylic acid], in experiment [3], the EC50 was in the range of 10 to 30 µM.

`O=C(O)c1cccc2c1OB(O)[C@@H](NC(=O)C(NC(=O)N1CCN(CC3CNC3)C(=O)C1=O)c1c(F)cc(O)cc1F)C2` (stereo partly drawn) [Example 193, (3R)-3-(2-(4-(azetidin-3-ylmethyl)-2,3-dioxopiperazine-1-carboxamido)-2-(2,6-difluoro-4-hydroxyphenyl)acetamido)-2-hydroxy-3,4-dihydro-2H-benzo[e][1,2]oxaborinine-8-carboxylic acid]: the EC50 in experiment [3] fell in the range of 10 to 30 µM. Still for that read-out and setting: to `CCN1CCN(C(=O)NC(C(=O)N[C@H]2Cc3cccc(C(=O)O)c3OB2O)c2ccc(C(=O)O)c(O)c2)C(=O)C1=O` (stereo partly drawn) [Example 196, (3R)-3-(2-(4-carboxy-3-hydroxyphenyl)-2-(4-ethyl-2,3-dioxopiperazine-1-carboxamido)acetamido)-2-hydroxy-3,4-dihydro-2H-benzo[e][1,2]oxaborinine-8-carboxylic acid] belongs < 10 µM.

Turning to `CCN1CCN(C(=O)NC(C(=O)N[C@H]2Cc3cccc(C(=O)O)c3OB2O)c2ccc(C(=O)O)c(Cl)c2Cl)C(=O)C1=O` (stereo partly drawn) [Example 201, (3R)-3-(2-(4-carboxy-2,3-dichlorophenyl)-2-(4-ethyl-2,3-dioxopiperazine-1-carboxamido)acetamido)-2-hydroxy-3,4-dihydro-2H-benzo[e][1,2]oxaborinine-8-carboxylic acid], the EC50 in experiment [3] is 10 to 30 µM. `CS(=O)(=O)N1CCN(C(=O)NC(C(=O)N[C@H]2Cc3ccc(F)c(C(=O)O)c3OB2O)c2c(Cl)cc(O)c(O)c2F)C1=O` (stereo partly drawn) [Example 208, (3R)-3-(2-(6-chloro-2-fluoro-3,4-dihydroxyphenyl)-2-(3-(methylsulfonyl)-2-oxoimidazolidine-1-carboxamido)acetamido)-7-fluoro-2-hydroxy-3,4-dihydro-2H-benzo[e][1,2]oxaborinine-8-carboxylic acid]: in experiment [2], the EC50 was in the range of 30 to 100 µM. The MIC in experiment [4] was 8 to 16 µg/mL (≈ 12.6 to 25.3 µM). In the case of `CCN1CCN(C(=O)N[C@H](C(=O)N[C@H]2Cc3ccc(F)c(C(=O)O)c3OB2O)c2ccc(O)c(O)c2)C(=O)C1=O` [Example 210, (R)-3-((S)-2-(3,4-dihydroxyphenyl)-2-(4-ethyl-2,3-dioxopiperazine-1-carboxamido)acetamido)-7-fluoro-2-hydroxy-3,4-dihydro-2H-benzo[e][1,2]oxaborinine-8-carboxylic acid], in experiment [2], the EC50 is > 100 µM. The MIC in experiment [4] was > 128 µg/mL. For `CCN1CCN(C(=O)N[C@@H](C(=O)N[C@H]2Cc3ccc(F)c(C(=O)O)c3OB2O)c2ccc(O)c(O)c2)C(=O)C1=O` [Example 211, (R)-3-((R)-2-(3,4-dihydroxyphenyl)-2-(4-ethyl-2,3-dioxopiperazine-1-carboxamido)acetamido)-7-fluoro-2-hydroxy-3,4-dihydro-2H-benzo[e][1,2]oxaborinine-8-carboxylic acid], the EC50 in experiment [2] fell in the range of 30 to 100 µM. Also, in experiment [4], the MIC lay in the range of 2 to 4 µg/mL (≈ 3.58 to 7.16 µM). With `NCCN1CCN(C(=O)N[C@@H](C(=O)N[C@H]2Cc3ccc(F)c(C(=O)O)c3OB2O)c2c(F)c(F)c(O)c(O)c2Cl)C(=O)C1=O` [Example 226, (R)-3-((R)-2-(4-(2-aminoethyl)-2,3-dioxopiperazine-1-carboxamido)-2-(2-chloro-5,6-difluoro-3,4-dihydroxyphenyl)acetamido)-7-fluoro-2-hydroxy-3,4-dihydro-2H-benzo[e][1,2]oxaborinine-8-carboxylic acid], in experiment [2], the EC50 is > 100 µM. Besides, in experiment [4], the MIC was 0.5 to 1 µg/mL (≈ 0.777 to 1.55 µM).
